Experimental data from patent US8466155B2, “Pyrimidines” (Boehringer Ingelheim International GmbH, priority 2009, dated 2013).
pIC50: −log10 of the molar value.

Molecular target: T1, PTK2 (Homo sapiens, UniProt Q05397)
T1 construct: purchased Invitrogen PV3832
Assay: PTK2 enzyme test, Assay 2 (DELFIA, PT66 antibody)
Assay type: biochemical
Conditions: values marked (*), read-out: PTK2 1 h IC50
Source text: This test uses active PTK2 enzyme (Invitrogen Code PV3832) and poly-Glu-Tyr (4:1, Sigma P-0275) as the kinase substrate. The kinase activity is detected by means of the phosphorylation of the substrate in a DELFIA™ assay. The phosphorylated substrate is detected with the europium-labelled phosphotyrosine antibody PT66 (Perkin Elmer, No.: AD0040).
In order to determine concentration-activity curves with PTK2-inhibitors the compounds are serially diluted first of all in 100% DMSO and then in kinase dilution buffer (20 mM TRIS/HCl pH 7.5, 0.1 mM EDTA, 0.1 mM EGTA, 0.286 mM sodium orthovanadate, 10% glycerol with the addition of freshly prepared BSA (fraction V, 1 mg/mL) and DTT (1 mM)) and 10 μL of each dilution are dispensed per well in a 96-well microtitre plate (clear U-shaped base plate, Greiner No. 650101) (the inhibitors are tested in duplicates) and mixed with 10 μL/well of PTK2 kinase (0.01 μg/well). PTK2 kinase is diluted accordingly beforehand with kinase dilution buffer. […]
The time-delayed europium fluorescence is then measured in a microtitre plate reader (VICTOR^3, Perkin Elmer). […]
The IC50 values are determined from concentration-activity analyses by iterative calculation using a sigmoid curve analysis algorithm (FIFTY, based on GraphPAD Prism Version 3.03) with a variable Hill coefficient.

T1 sequence (Q05397 whole entry): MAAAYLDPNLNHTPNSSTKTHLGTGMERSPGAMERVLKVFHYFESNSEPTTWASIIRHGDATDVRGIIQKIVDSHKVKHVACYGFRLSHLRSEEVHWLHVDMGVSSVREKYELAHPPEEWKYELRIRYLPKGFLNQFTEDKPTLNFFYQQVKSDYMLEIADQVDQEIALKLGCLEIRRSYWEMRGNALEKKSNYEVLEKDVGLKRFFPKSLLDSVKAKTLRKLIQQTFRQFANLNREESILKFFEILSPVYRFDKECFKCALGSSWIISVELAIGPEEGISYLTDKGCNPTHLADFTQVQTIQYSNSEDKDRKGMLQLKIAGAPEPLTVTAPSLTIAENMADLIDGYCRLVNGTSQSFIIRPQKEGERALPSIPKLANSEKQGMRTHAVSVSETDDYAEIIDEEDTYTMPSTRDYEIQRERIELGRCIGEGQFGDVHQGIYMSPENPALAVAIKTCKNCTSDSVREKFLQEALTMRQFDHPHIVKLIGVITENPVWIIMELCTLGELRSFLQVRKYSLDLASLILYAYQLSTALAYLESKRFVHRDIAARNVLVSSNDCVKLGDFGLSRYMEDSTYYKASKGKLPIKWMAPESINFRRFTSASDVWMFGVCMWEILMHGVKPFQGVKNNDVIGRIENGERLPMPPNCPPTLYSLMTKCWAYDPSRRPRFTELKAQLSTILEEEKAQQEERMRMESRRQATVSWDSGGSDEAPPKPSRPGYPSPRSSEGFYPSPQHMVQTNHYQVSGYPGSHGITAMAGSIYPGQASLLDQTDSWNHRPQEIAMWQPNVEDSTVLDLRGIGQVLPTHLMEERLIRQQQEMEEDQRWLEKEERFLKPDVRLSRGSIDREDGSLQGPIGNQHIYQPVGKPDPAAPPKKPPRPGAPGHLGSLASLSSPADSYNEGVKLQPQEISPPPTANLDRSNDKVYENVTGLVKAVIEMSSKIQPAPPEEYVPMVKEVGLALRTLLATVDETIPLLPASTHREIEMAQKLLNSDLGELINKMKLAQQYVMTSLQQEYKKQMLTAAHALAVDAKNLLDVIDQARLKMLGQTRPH

| pIC50 | Structure (SMILES) |
| --- | --- |
| 9.07 | COc1cc(N2CCN(C(C)(C)C)CC2)ccc1Nc1ncc(C(F)(F)F)c(O[C@@H]2Cc3ccccc3[C@H]2N(C)S(C)(=O)=O)n1 [Example 90, N-((1R,2R)-2-{2-[4-(4-tert-butyl-piperazin-1-yl)-2-methoxy-phenylamino]-5-trifluoromethyl-pyrimidin-4-yloxy}-indan-1-yl)-N-methyl-methanesulphonamide] |
| 9.40 | COc1ccc(C(=O)NC2CCN(C)CC2)cc1Nc1ncc(C(F)(F)F)c(O[C@@H]2Cc3ccccc3[C@H]2N(C)S(C)(=O)=O)n1 [Example 79, 3-{4-[(1R,2R)-1-(methanesulphonyl-methyl-amino)-indan-2-yloxy]-5-trifluoromethyl-pyrimidin-2-ylamino}-4-methoxy-N-(1-methyl-piperidin-4-yl)-benzamide] |
